Assay results from patent US12655116B2, “Substituted isophthalic acid diamides” (Bayer Aktiengesellschaft, priority 2020, dated 2026).

Legend:
AVEFA = assay: Pre-emergence herbicidal action against AVEFA; format: in vivo, Avena fatua; settings: 80 g/ha, pre-emergence
Method in brief: (§1)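 Pre-emergence soil-surface spray of formulated compound (WP or EC; 600 to 800 l/ha; 0.2% wetting agent) over seeds sown in sandy loam. After 3 weeks under greenhouse conditions, damage is estimated visually in percent against untreated plants.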

ECHCG [1] = assay: Post-emergence herbicidal action against ECHCG; format: in vivo, Echinochloa crus-galli; settings: dosage 20 g/ha
Method in brief: (§2)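 Spray, one-leaf stage: WP or EC compound in water, 600–800 l/ha, 0.2% wetting agent. Plants held about 3 weeks in the greenhouse, then visually rated in percent of kill compared with untreated controls.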

ECHCG [2] = assay: Pre-emergence herbicidal action against ECHCG; format: in vivo, Echinochloa crus-galli; settings: 80 g/ha
Method in brief: as §1

POLCO = assay: Pre-emergence herbicidal action against POLCO; format: in vivo, Polygonum convolvulus; settings: dosage 80 g/ha
Method in brief: as §1

ALOMY [3] = assay: Pre-emergence herbicidal action against ALOMY; format: in vivo, Alopecurus myosuroides; settings: 80 g/ha, pre-emergence, scored visually after 3 weeks vs untreated controls (100% = plants have died, 0% = like control plants)
Method in brief: as §1

ABUTH [4] = assay: Pre-emergence herbicidal action against ABUTH; format: in vivo, Abutilon theophrasti
Method in brief: as §1

VERPE [5] = assay: Pre-emergence herbicidal action against VERPE; format: in vivo, Veronica persica
Method in brief: as §1

AMARE [6] = assay: Pre-emergence herbicidal action against AMARE; format: in vivo, Amaranthus retroflexus
Method in brief: as §1

MATIN [7] = assay: Pre-emergence herbicidal action against MATIN; format: in vivo, Matricaria inodora
Method in brief: as §1

VIOTR = assay: Pre-emergence herbicidal action against VIOTR; format: in vivo, Viola tricolor
Method in brief: as §1

AMARE [8] = assay: Post-emergence herbicidal action against AMARE; format: in vivo, Amaranthus retroflexus; settings: 20 g/ha, visual assessment about 3 weeks after treatment, 100% = plants have died, 0% = like control plants
Method in brief: as §2

ALOMY [9] = assay: Post-emergence herbicidal action against ALOMY; format: in vivo, Alopecurus myosuroides; settings: dosage 20 g/ha, visual assessment about 3 weeks after treatment vs untreated controls
Method in brief: as §2

PHBPU [10] = assay: Post-emergence herbicidal action against PHBPU; format: in vivo, Pharbitis purpurea; settings: dosage 20 g/ha
Method in brief: as §2

SETVI = assay: Pre-emergence herbicidal action against SETVI; format: in vivo, Setaria viridis
Method in brief: as §1

PHBPU [11] = assay: Pre-emergence herbicidal action against PHBPU; format: in vivo, Pharbitis purpurea; settings: dosage 80 g/ha
Method in brief: as §1

DIGSA [12] = assay: Post-emergence herbicidal action against DIGSA; format: in vivo, Digitaria sanguinalis; settings: 20 g/ha
Method in brief: as §2

MATIN [13] = assay: Post-emergence herbicidal action against MATIN; format: in vivo, Matricaria inodora; settings: dosage 20 g/ha
Method in brief: as §2

VERPE [14] = assay: Post-emergence herbicidal action against VERPE; format: in vivo, Veronica persica; settings: 20 g/ha
Method in brief: as §2

DIGSA [15] = assay: Pre-emergence herbicidal action against DIGSA; format: in vivo, Digitaria sanguinalis
Method in brief: as §1

ABUTH [16] = assay: Post-emergence herbicidal action against ABUTH; format: in vivo, Abutilon theophrasti; settings: dosage 20 g/ha, visual assessment about 3 weeks after treatment vs untreated controls
Method in brief: as §2

[17] = 80 g/ha, scored visually after 3 weeks vs untreated controls (100% = plants have died, 0% = like control plants)

CC(NC(=O)c1c(C(F)F)ccc(C(=O)Nc2nnnn2C)c1Br)C1CC1 (stereo not drawn) [Example 1-340]
Pre-emergence action against AVEFA in % (AVEFA): 80% | Post-emergence action against ECHCG in % (ECHCG [1]): 90% | Pre-emergence action against ECHCG in % (ECHCG [2]): 100% | Pre-emergence action against POLCO in % (POLCO): 90% | Pre-emergence action against ALOMY (herbicidal activity) (ALOMY [3]): 90% | Pre-emergence action against ABUTH (herbicidal activity) (ABUTH [4]; [17]): 100% | Pre-emergence action against ABUTH (herbicidal activity in percent) (ABUTH [4]; dosage 20 g/ha, scored visually after 3 weeks vs untreated controls, 100% = plants have died, 0% = like control plants): 100% | Pre-emergence action against VERPE in % (VERPE [5]; dosage 20 g/ha): 100% | Pre-emergence action against VERPE in % (VERPE [5]; dosage 80 g/ha): 100% | Pre-emergence action against AMARE in % (AMARE [6]; 20 g/ha, scored visually after 3 weeks vs untreated controls, 100% = plants have died, 0% = like control plants): 100% | Pre-emergence action against AMARE in % (AMARE [6]; [17]): 100% | Pre-emergence action against MATIN in % (MATIN [7]; dosage 20 g/ha): 100% | Pre-emergence action against MATIN in % (MATIN [7]; dosage 80 g/ha): 100% | Pre-emergence action against VIOTR in % (VIOTR; dosage 20 g/ha): 100% | Pre-emergence action against VIOTR in % (VIOTR; dosage 80 g/ha): 100% | Post-emergence action at 20 g/ha against AMARE in % (AMARE [8]): 90% | Post-emergence action against ALOMY in % (ALOMY [9]): 80% | Post-emergence action against PHBPU in % (PHBPU [10]): 90% | Pre-emergence action against SETVI in % (SETVI; dosage 20 g/ha): 90% | Pre-emergence action against SETVI in % (SETVI; dosage 80 g/ha): 100% | Pre-emergence action against PHBPU in % (PHBPU [11]): 90% | Post-emergence action against DIGSA (DIGSA [12]): 90% | Post-emergence action against MATIN in % (MATIN [13]): 80% | Post-emergence action against VERPE in % (VERPE [14]): 80% | Pre-emergence action against DIGSA in % (DIGSA [15]; dosage 20 g/ha): 100% | Pre-emergence action against DIGSA in % (DIGSA [15]; dosage 80 g/ha): 100% | Post-emergence action against ABUTH in % (ABUTH [16]): 80%
